Experimental data from PMC10879502, “Linking ATP and allosteric sites to achieve superadditive binding with bivalent EGFR kinase inhibitors” (Communications Chemistry, 2024).
“And” between values parts separate entries of the source, which are not always exact repeats. Equal entries are not always repeated. Where two headings read alike, the source gives them in different places.

Tests used:
WT EGFR kinase domain = target: T1, WT EGFR kinase domain (Homo sapiens, UniProt P00533); experiment: HTRF KinEASE-TK kinase activity assay; assay type: biochemical; settings: enzyme 10 nM, ATP 100 µM; read-out: Biochemical EGFR IC50, WT
T1 construct: The EGFR kinase domain (residues 696–1022) was cloned into pTriEx; 6xHis (N, cleaved yes); GST (N, cleaved yes); made in house; host or cells: SF9 insect cells, baculovirus

[1] = target: T2, EGFR L858R (LR) kinase domain (Homo sapiens, UniProt P00533, L858R); experiment: HTRF KinEASE-TK kinase activity assay; assay type: biochemical
T2 construct: The EGFR kinase domain (residues 696–1022) was cloned into pTriEx; 6xHis (N, cleaved yes); GST (N, cleaved yes); made in house; host or cells: SF9 insect cells, baculovirus

ABL1-nonphosphorylated = target: T3, ABL1-nonphosphorylated (Homo sapiens, UniProt P00519); experiment: KINOMEscan; assay type: binding; settings: 1 μM
T3 construct: purchased Eurofins DiscoverX Corporation

ACVR2A = ACVR2A (Homo sapiens, UniProt P27037); experiment: KINOMEscan; assay type: binding; settings: 1 μM
ADCK4 = ADCK4 (Homo sapiens, UniProt Q96D53); experiment: KINOMEscan; assay type: binding; settings: 1 μM
ALK(L1196M) = ALK(L1196M) (Homo sapiens, UniProt Q9UM73, L1196M); experiment: KINOMEscan; assay type: binding; settings: 1 μM
ASK2 = ASK2 (Homo sapiens, UniProt O95382); experiment: KINOMEscan; assay type: binding; settings: 1 μM
BRSK2 = target: T4, BRSK2 (Homo sapiens, UniProt Q8IWQ3); experiment: KINOMEscan; assay type: binding; settings: 1 μM
T4 construct: purchased Eurofins DiscoverX Corporation (KINOMEscan)

BTK = target: T5, BTK (Homo sapiens, UniProt Q06187); experiment: KINOMEscan; assay type: binding; settings: 1 μM
T5 construct: purchased Eurofins DiscoverX Corporation (KINOMEscan)

BUB1 = target: T6, BUB1 (Homo sapiens, UniProt O43683); experiment: KINOMEscan; assay type: binding; settings: 1 μM
T6 construct: purchased Eurofins DiscoverX Corporation (KINOMEscan)

CDK4-cyclinD1 = CDK4-cyclinD1 (Homo sapiens, UniProt P11802); experiment: KINOMEscan; assay type: binding; settings: 1 μM
CLK4 = CLK4 (Homo sapiens, UniProt Q9HAZ1); experiment: KINOMEscan; assay type: binding; settings: 1 μM
CTK = target: T7, CTK (Homo sapiens, UniProt P42679); experiment: KINOMEscan; assay type: binding; settings: 1 μM
T7 construct: purchased Eurofins DiscoverX Corporation

DCAMKL2 = target: T8, DCAMKL2 (Homo sapiens, UniProt Q8N568); experiment: KINOMEscan; assay type: binding; settings: 1 μM
T8 construct: purchased Eurofins DiscoverX Corporation

DCAMKL3 = target: T9, DCAMKL3 (Homo sapiens, UniProt Q9C098); experiment: KINOMEscan; assay type: binding; settings: 1 μM
T9 construct: purchased Eurofins DiscoverX Corporation

EGFR(L747-S752del+P753S) = EGFR(L747-S752del+P753S) (Homo sapiens, UniProt P00533, DEL747-752/P753S); experiment: KINOMEscan; assay type: binding; settings: 1 μM
FLT3(N841I) = target: T10, FLT3(N841I) (Homo sapiens, UniProt P36888, N841I); experiment: KINOMEscan; assay type: binding; settings: 1 μM
T10 construct: purchased Eurofins DiscoverX Corporation

KIT = target: T11, KIT (Homo sapiens, UniProt P10721); experiment: KINOMEscan; assay type: binding; settings: 1 μM
T11 construct: purchased Eurofins DiscoverX (KINOMEscan)

MET = target: T12, MET (Homo sapiens, UniProt P08581); experiment: KINOMEscan; assay type: binding; settings: 1 μM
T12 construct: purchased Eurofins DiscoverX Corporation

NEK3 = target: T13, NEK3 (Homo sapiens, UniProt P51956); experiment: KINOMEscan; assay type: binding; settings: 1 μM
T13 construct: purchased Eurofins DiscoverX Corporation

NEK4 = target: T14, NEK4 (Homo sapiens, UniProt P51957); experiment: KINOMEscan; assay type: binding; settings: 1 μM
T14 construct: purchased Eurofins DiscoverX Corporation

NLK = NLK (Homo sapiens, UniProt Q9UBE8); experiment: KINOMEscan; assay type: binding; settings: 1 μM
PCTK1 = PCTK1 (Homo sapiens, UniProt Q00536); experiment: KINOMEscan; assay type: binding; settings: 1 μM
PIK3CA(H1047L) = PIK3CA(H1047L) (Homo sapiens, UniProt P42336, H1047L); experiment: KINOMEscan; assay type: binding; settings: 1 μM
PIK3CA(H1047Y) = PIK3CA(H1047Y) (Homo sapiens, UniProt P42336, H1047Y); experiment: KINOMEscan; assay type: binding; settings: 1 μM
RAF1 = RAF1 (Homo sapiens, UniProt P04049); experiment: KINOMEscan; assay type: binding; settings: 1 μM
ROS1 = ROS1 (Homo sapiens, UniProt P08922); experiment: KINOMEscan; assay type: binding; settings: 1 μM
[2] = target: RSK2(Kin.Dom.1-N-terminal) (Homo sapiens, UniProt P51812); experiment: KINOMEscan; assay type: binding; settings: 1 μM
[3] = target: RSK4(Kin.Dom.2-C-terminal) (Homo sapiens, UniProt Q9UK32); experiment: KINOMEscan; assay type: binding; settings: 1 μM
SgK110 = SgK110 (Homo sapiens, UniProt P0C264); experiment: KINOMEscan; assay type: binding; settings: 1 μM
SIK = SIK (Homo sapiens, UniProt P57059); experiment: KINOMEscan; assay type: binding; settings: 1 μM
SRC = SRC (Homo sapiens, UniProt P12931); experiment: KINOMEscan; assay type: binding; settings: 1 μM
SRPK2 = SRPK2 (Homo sapiens, UniProt P78362); experiment: KINOMEscan; assay type: binding; settings: 1 μM
TLK1 = target: T15, TLK1 (Homo sapiens, UniProt Q9UKI8); experiment: KINOMEscan; assay type: binding; settings: 1 μM
T15 construct: purchased Eurofins DiscoverX Corporation

TNK2 = target: T16, TNK2 (Homo sapiens, UniProt Q07912); experiment: KINOMEscan; assay type: binding; settings: 1 μM
T16 construct: purchased Eurofins DiscoverX Corporation

[4] = target: TYK2(JH2domain-pseudokinase) (Homo sapiens, UniProt P29597); experiment: KINOMEscan; assay type: binding; settings: 1 μM
YSK1 = YSK1 (Homo sapiens, UniProt O00506); experiment: KINOMEscan; assay type: binding; settings: 1 μM
ZAK = ZAK (Homo sapiens, UniProt Q9NYL2); experiment: KINOMEscan; assay type: binding; settings: 1 μM

Sequence of YSK1 (O00506 whole entry): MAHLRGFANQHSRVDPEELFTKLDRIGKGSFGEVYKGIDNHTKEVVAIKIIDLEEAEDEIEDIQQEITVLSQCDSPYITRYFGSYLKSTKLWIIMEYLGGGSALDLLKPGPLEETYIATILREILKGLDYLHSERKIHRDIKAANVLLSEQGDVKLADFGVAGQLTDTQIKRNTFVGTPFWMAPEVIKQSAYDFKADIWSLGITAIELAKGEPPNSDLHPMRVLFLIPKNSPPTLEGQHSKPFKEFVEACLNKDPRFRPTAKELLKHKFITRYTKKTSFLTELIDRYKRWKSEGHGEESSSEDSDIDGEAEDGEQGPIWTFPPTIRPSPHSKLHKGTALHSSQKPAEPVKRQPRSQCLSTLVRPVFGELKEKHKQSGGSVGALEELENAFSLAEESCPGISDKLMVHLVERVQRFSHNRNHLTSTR
Sequence of PIK3CA(H1047Y) (P42336 whole entry H1047Y): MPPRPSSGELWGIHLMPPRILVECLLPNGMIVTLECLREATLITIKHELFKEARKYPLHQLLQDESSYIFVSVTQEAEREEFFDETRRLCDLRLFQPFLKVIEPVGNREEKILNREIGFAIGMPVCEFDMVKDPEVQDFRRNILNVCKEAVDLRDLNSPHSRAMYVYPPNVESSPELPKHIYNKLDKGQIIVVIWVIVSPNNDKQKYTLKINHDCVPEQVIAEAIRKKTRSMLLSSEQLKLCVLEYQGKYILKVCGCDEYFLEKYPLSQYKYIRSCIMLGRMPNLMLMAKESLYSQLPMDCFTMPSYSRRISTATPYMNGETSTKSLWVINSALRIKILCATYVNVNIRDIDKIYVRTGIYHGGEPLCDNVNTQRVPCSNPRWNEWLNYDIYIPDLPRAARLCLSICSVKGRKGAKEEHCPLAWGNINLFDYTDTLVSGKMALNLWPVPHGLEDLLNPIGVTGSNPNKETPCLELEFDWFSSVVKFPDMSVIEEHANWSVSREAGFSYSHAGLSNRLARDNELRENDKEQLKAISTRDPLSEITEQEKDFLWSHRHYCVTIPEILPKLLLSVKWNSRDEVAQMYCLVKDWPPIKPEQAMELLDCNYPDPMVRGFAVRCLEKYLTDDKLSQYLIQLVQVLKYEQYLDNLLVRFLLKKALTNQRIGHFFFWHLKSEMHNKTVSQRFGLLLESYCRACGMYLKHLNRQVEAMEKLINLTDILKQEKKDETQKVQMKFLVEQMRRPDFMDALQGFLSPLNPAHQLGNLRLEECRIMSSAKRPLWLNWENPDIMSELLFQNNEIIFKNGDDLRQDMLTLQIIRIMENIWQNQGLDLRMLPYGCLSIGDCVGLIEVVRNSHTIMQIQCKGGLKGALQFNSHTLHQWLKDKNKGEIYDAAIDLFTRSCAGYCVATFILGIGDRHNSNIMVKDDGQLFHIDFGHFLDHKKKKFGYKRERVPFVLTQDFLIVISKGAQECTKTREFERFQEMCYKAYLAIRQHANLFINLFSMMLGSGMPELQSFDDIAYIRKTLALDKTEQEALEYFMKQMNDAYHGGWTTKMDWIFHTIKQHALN
T16 sequence (Q07912 whole entry): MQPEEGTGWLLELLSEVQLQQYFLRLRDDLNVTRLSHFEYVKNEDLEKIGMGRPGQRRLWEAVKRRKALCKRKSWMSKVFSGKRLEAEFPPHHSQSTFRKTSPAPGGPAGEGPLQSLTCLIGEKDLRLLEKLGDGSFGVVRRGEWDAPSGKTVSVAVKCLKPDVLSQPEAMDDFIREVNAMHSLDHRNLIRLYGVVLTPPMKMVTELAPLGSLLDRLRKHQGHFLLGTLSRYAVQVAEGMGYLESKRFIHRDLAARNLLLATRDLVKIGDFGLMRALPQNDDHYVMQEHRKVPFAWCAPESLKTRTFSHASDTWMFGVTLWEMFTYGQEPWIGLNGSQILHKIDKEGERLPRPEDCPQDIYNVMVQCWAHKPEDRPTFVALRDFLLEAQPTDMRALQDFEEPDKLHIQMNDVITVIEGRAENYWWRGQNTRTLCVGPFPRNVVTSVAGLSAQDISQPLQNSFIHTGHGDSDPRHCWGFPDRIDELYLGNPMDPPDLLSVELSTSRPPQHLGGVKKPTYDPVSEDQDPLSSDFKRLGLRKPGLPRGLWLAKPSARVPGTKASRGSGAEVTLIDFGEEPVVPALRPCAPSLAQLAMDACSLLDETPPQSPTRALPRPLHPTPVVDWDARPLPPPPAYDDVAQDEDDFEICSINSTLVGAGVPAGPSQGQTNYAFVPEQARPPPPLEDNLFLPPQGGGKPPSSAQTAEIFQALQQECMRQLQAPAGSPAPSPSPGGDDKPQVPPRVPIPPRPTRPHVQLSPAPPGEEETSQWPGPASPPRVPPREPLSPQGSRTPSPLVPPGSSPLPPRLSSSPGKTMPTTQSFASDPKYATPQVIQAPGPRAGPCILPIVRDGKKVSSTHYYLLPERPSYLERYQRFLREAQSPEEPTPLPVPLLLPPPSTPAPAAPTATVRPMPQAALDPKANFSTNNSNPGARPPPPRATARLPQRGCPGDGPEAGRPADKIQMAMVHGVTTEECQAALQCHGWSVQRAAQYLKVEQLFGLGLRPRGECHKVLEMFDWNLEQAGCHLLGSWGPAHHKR
T5 sequence (Q06187 whole entry): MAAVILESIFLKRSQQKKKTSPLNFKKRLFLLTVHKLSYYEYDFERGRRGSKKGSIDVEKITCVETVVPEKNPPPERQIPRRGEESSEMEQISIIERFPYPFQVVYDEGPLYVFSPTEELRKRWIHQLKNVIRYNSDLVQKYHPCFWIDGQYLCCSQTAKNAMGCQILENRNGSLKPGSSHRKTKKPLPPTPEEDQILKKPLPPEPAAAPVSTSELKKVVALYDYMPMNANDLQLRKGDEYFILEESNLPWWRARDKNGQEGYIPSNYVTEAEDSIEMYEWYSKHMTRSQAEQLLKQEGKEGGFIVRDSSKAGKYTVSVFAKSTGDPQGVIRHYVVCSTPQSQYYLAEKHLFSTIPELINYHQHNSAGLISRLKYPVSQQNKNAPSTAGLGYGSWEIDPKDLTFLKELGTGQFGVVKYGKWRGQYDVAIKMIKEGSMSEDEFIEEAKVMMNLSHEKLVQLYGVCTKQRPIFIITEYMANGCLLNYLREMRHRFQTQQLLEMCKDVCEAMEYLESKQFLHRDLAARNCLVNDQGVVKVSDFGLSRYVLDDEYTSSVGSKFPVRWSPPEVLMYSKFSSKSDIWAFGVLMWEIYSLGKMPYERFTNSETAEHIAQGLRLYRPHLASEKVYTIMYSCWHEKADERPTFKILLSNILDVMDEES
Sequence of PCTK1 (Q00536 whole entry): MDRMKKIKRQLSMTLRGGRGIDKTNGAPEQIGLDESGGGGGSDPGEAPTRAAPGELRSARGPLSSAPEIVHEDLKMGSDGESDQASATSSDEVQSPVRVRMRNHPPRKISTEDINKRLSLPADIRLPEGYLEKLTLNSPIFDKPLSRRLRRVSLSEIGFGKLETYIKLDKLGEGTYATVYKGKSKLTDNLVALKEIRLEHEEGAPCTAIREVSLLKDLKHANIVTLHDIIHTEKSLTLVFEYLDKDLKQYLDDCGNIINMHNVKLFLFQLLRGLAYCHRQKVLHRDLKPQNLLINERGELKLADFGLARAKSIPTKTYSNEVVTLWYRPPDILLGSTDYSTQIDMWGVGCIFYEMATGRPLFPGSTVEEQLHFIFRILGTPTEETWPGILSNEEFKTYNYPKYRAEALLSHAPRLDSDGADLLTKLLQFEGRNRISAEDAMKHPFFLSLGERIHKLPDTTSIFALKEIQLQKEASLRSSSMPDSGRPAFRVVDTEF
T12 sequence (P08581 25-1390): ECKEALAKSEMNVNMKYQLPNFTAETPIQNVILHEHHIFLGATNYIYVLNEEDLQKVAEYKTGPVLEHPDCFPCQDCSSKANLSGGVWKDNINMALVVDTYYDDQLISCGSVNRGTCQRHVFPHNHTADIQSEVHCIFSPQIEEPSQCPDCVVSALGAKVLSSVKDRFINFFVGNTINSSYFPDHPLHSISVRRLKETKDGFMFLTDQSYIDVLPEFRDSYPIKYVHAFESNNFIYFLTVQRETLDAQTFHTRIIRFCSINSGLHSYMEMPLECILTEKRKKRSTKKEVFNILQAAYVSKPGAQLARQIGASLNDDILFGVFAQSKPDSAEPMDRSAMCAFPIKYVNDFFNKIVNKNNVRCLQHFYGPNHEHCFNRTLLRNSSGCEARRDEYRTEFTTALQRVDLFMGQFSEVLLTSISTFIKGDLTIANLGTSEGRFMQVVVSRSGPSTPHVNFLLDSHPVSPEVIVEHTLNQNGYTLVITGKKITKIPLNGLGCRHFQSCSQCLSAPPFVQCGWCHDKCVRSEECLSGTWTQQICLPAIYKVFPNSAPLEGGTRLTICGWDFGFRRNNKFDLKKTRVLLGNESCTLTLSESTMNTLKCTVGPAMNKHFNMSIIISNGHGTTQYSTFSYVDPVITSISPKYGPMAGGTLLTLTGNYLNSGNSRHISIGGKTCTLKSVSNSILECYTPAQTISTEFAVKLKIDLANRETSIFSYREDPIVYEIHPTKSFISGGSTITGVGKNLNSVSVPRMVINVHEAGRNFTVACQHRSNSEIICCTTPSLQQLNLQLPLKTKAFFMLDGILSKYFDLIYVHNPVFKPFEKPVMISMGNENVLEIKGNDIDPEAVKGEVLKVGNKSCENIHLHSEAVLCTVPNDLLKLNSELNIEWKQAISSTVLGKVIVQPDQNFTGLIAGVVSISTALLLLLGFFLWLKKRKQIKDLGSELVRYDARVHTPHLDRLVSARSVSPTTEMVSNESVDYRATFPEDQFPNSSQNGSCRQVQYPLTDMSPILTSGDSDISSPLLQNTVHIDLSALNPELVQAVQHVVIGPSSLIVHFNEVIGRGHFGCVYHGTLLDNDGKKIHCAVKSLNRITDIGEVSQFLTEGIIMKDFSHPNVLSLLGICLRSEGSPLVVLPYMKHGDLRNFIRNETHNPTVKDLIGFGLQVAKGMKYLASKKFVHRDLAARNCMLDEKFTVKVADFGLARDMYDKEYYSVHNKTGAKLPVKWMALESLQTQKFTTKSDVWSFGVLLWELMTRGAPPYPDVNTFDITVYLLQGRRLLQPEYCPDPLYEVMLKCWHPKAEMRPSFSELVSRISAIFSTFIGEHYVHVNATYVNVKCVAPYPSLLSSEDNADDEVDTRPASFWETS
Sequence of PIK3CA(H1047L) (P42336 whole entry H1047L): as the sequence (P42336 whole entry H1047Y) above, with Y1047L counted along it

SMILES: CSc1nc(-c2cccc(NC(=O)c3cccc4c3NC(=O)c3ccccc3N4)c2)c(-c2ccnc(NC(C)=O)c2)[nH]1 [Compound 2]
- IC50 (WT EGFR kinase domain): < 10 nM
- activity ([1]; LR, [Inhibitor] 1.3e-5 nM, read-out: percent inhibition): 93.5% and 92.2% and 100%
- activity ([1]; LR, [Inhibitor] 3.18e-5 nM, read-out: percent inhibition): 90.3% (2×) and 95.9%
- activity ([1]; LR, [Inhibitor] 7.78e-5 nM, read-out: percent inhibition): 71% and 67.2% and 70.8%
- activity at 190.4 fM ([1]; LR, [Inhibitor] 0.000190441 nM, read-out: percent inhibition): 39.1%
- activity at 466 fM ([1]; LR, [Inhibitor] 0.000465979 nM, read-out: percent inhibition): 22.7%
- activity at 1.14 pM ([1]; LR, [Inhibitor] 0.00114018 nM, read-out: percent inhibition): 13.5%
- activity at 2.79 pM ([1]; LR, [Inhibitor] 0.00278983 nM, read-out: percent inhibition): 8.55%
- activity at 6.826 pM ([1]; LR, [Inhibitor] 0.00682626 nM, read-out: percent inhibition): 4.28%
- activity at 16.7 pM ([1]; LR, [Inhibitor] 0.0167028 nM, read-out: percent inhibition): 1.88%
- IC50 ([1]; enzyme 0.1 nM, ATP 100 µM, read-out: Biochemical EGFR IC50, LR): 1.5 ± 0.1 nM

SMILES: C=CC(=O)Nc1ccc(OC)c(Nc2cc(-c3[nH]c(CC)nc3-c3cccc(NC(=O)c4cccc5c4NC(=O)c4ccccc4N5)c3)ccn2)c1 [Compound 4]
- POC (ABL1-nonphosphorylated): 100% of control
- POC (ACVR2A): 77% of control
- POC (ADCK4): 85% of control
- POC (ALK(L1196M)): 89% of control
- POC (ASK2): 100% of control
- POC (BRSK2): 93% of control
- POC (BTK): 54% of control
- POC (BUB1): 100% of control
- POC (CDK4-cyclinD1): 94% of control
- POC (CLK4): 100% of control
- POC (CTK): 54% of control
- POC (DCAMKL2): 100% of control
- POC (DCAMKL3): 86% of control
- POC (EGFR(L747-S752del+P753S)): 16% of control
- POC (FLT3(N841I)): 97% of control
- POC (KIT): 100% of control
- POC (MET): 69% of control
- POC (NEK3): 100% of control
- POC (NEK4): 100% of control
- POC (NLK): 48% of control
- POC (PCTK1): 100% of control
- POC (PIK3CA(H1047L)): 100% of control
- POC (PIK3CA(H1047Y)): 66% of control
- POC (RAF1): 73% of control
- POC (ROS1): 80% of control
- POC [2]: 100% of control
- POC [3]: 80% of control
- POC (SgK110): 100% of control
- POC (SIK): 100% of control
- POC (SRC): 73% of control
- POC (SRPK2): 100% of control
- POC (TLK1): 87% of control
- POC (TNK2): 3.8% of control
- POC [4]: 100% of control
- POC (YSK1): 76% of control
- POC (ZAK): 87% of control
